Experimental data taken from a melting point compilation (Tetko et al.; mined from patent text by program, amines drawn as free bases though some values may be those of a salt).

Structure (SMILES) | melting point
COc1cc2c(Nc3ccc(Sc4nccn4C)c(Cl)c3)c(C#N)cnc2cc1/C=C/CCO | 273 to 278 °C
O=c1oc2c(OCc3nnn[nH]3)c(O)c(OCc3nnn[nH]3)c(O)c2c2c1CCCC2 | 283 to 286 °C
CCCOc1ccc(-c2ccc3c(c2)C=C(C(=O)Nc2ccc(CN(C)C4CCOCC4)cc2)CCN3C)cc1 | 149 to 151 °C
CC1(C(=O)O)CC1(Br)Br (stereo unspecified) | 108 to 109 °C
CCCCCCCCc1ccc(CCC(NC(C)=O)(C(O)OC(C)=O)C(O)OC(C)=O)cc1 (stereo unspecified) | 105 to 107 °C
C=CCCc1ccc(C=NN=Cc2ccc(CCC=C)cc2)cc1 | 57 °C
NS(=O)(=O)c1ccc(-c2[nH]c3ccccc3c2-c2ccccc2)cc1 | 231 to 232 °C
Cc1ccnc(-c2cccc([N+](=O)[O-])c2)c1 | 80 to 82 °C
CCOC(=O)c1cnn(-c2ccc(CBr)cc2)n1 | 148 to 149 °C
O=P1(c2ccc(F)cc2)c2ccccc2CN1c1ccc(Br)cc1 (stereo unspecified) | 201 to 205 °C
CCCOc1ccccc1-c1ccc(C(=O)OC)c(=O)[nH]1 | 126 to 128 °C
O=C(C(Cl)(Cl)Cl)C1(c2ccc(Cl)cc2)C=CC=N1 (stereo unspecified) | 166 to 168 °C
Cc1cc(N2N=CCNC2=O)cc(Cl)c1C(C#N)c1ccc(Cl)nc1 (stereo unspecified) | 211 to 212 °C
CCCN(CCC)[C@H]1COc2c(F)ccc(C(=O)NC)c2C1 | 72 to 73 °C
COC(=O)Cn1cnc2c(OCc3ccccc3)ncnc21 | 112 to 115 °C
O=C(N[C@H]1CC[C@H](CCN2CCN(c3nccc4c3CCO4)CC2)CC1)c1ccc(F)cc1 | 210 °C
O=C(Nc1cccc(-c2nnn[nH]2)c1)C(=O)N1CCC(Cc2ccc(F)cc2)CC1 | 107 to 112 °C
COc1ccc(C2CC(=O)N(c3c(C)c(C)c4c(c3C)[C@@H](c3ccc(C)cc3)C(C)(C)O4)C(=O)C2)cc1 | 207 to 209 °C
Cn1c(C(F)(F)F)ccc(-c2ccc(F)cc2F)c1=O | 123 to 124 °C
COC(=O)C1=C(S(=O)(=O)NC(=O)Nc2nc(OC)nc(OC)n2)CCC1 | 168 to 169 °C
FC(F)(F)c1cc(/C=C/c2ncon2)ccc1Cl | 85 to 87 °C
CNC(=O)C(Cc1ccc(OC)cc1)NC(=O)C(CC(C)C)C(CC(=O)OC(C)(C)C)SC(C)=O (stereo unspecified) | 147 to 151 °C
CC(=O)Oc1c(Cl)cc(Cl)cc1C1(OC(C)=O)C(=O)c2ccccc2C1=O | 178 to 180 °C
Cc1c(Cl)nc2nc(SCc3ccccc3)nn2c1Cl | 121 to 123 °C
CCCCC(=O)Nc1c(C(=O)OC)cc(C)cc1[N+](=O)[O-] | 59 to 60 °C
CC(C)C(=O)Nc1cn(-c2cncc(F)c2)nc1CCl | 172 to 177 °C

Structure (SMILES) | melting point
CC(C)n1nc(-c2c(Cl)nc(N)nc2-c2ccccc2)ccc1=O | 235 to 237 °C
Cc1cc(C2=NN(C3=NNC(=O)CS3)[C@H](C)Cc3cc4c(cc32)OCO4)ccc1[N+](=O)[O-] | 207 to 211 °C
O=C(O[C@H]1OCCN(Cc2ccccc2)[C@H]1c1ccc(F)cc1)c1cc(C(F)(F)F)cc(C(F)(F)F)c1 | 102 to 103 °C
COc1cc(CC(=O)NCCCc2ccc(C)c(C)c2)ccc1OCCN1CCNCC1 | 92 to 94 °C
O=C(c1ccco1)N1Cc2c(-c3noc(C4CC4)n3)ncn2-c2ccccc21 | 190 to 191 °C
CN(CC(=O)NO)S(=O)(=O)Cc1cccc(C(F)(F)F)c1 | 128 to 129 °C
C=CCC[Si](c1ccccc1)(c1ccccc1)C1SCCCS1 | 47 to 49 °C
O=C(O)CP(=O)(O)CCCCc1ccccc1 | 110 °C
CCOC(=O)C1=Cc2cc(Br)ccc2N(C=O)CC1 | 150 to 152 °C
Nc1sc2c(c1C(=O)c1cccc3ccccc13)CCCC2 | 137 to 140 °C
CCc1nn(C(C)C)c2cc(C(=O)O)ccc12 | 160 to 163 °C
Cc1ccccc1-c1cnc2c(C(F)(F)F)cccc2c1-c1cccc(NC(=O)Nc2ccccc2Cl)c1 | 224 to 226 °C
COC(=O)CC1CCCN(C(=O)c2ccc(N3CCCC3)cc2Cl)c2ccccc21 (stereo unspecified) | 158 °C
CC(=O)OCCCOc1ccc2nc3c(cc2c1)NCN3 | 301 to 303 °C
O=C(NCCC[C@H]1OC[C@H](c2cccc3cc(OCC4CC4)ccc32)CO1)OCC(F)(F)F | 105 to 107 °C
NC(=O)c1cn2c(nc1=O)CCC2 | 277 to 278 °C
O[C@@H]([C@H](O)[C@@H](COc1ccccc1)OCc1ccccc1)[C@@H](COc1ccccc1)OCc1ccccc1 | 80 °C
CN(Cc1cc2c3c(c1)c(=O)c(C(=O)NCc1ccc(F)cc1)cn3CC(=O)N2C)C[C@@H](O)c1ccccc1 | 150 to 152 °C
Cc1nc2ccc(Cl)cc2nc1Cl | 194 to 196 °C
CCOC(=O)c1ccc(CCN2CC=C(c3c[nH]c(-c4ccc(F)cc4)c3-c3ccncc3)CC2)cc1 | 217 to 218 °C
COC(=O)c1ccc(C=O)c2ncccc12 | 128 °C
N#CC1=C(Nc2cc(C(F)(F)F)ccc2N)CSC1 | 189 °C
CC1(C)CCC(C)(C)c2cc(NC(=O)c3ccc(C=CC(=O)O)cc3)ccc21 | 226 to 227 °C
Cn1c(=O)c(Oc2ccccc2F)cc2cnc(N)nc21 | 241 to 243 °C
CNc1noc(C(C)c2cccc(C(=O)c3ccccc3)c2)n1 (stereo unspecified) | 100 to 101 °C
CS(=O)(=O)c1ccc(-c2cccn2-c2ccc(F)c(F)c2)cc1 | 137 to 139 °C

Structure (SMILES) | melting point
CCCCCCCCCC(=O)c1ccc(OCc2ccc(C=C3SC(=S)NC3=O)cc2)c(CCC)c1O | 188 °C
CCOC(=O)c1cnc2c(cnn2CC)c1Nc1ccccc1N | 126 to 128 °C
Cc1cc(CCCCCOc2c(Cl)cc(C3=NCCO3)cc2Cl)on1 | 42 to 43 °C
O=C(Nc1noc2ccccc12)N1CCN(c2nc(-c3ccccc3)co2)CC1 | 171 to 172 °C
C=C=Cn1c(=O)sc2cc(F)c(-n3c(=O)cc(C)n(C)c3=O)cc21 | > 250 °C
CC(C)(C)CC(C)(C)c1ccc(OCC(=O)Nc2ccc(Cl)c(Nc3cc(=O)n(-c4c(Cl)cc(Cl)cc4Cl)[nH]3)c2)cc1 | 126 to 128 °C
CC(C)(C)C(=O)COc1nn(CC(=O)C(C)(C)C)c(-c2ccc(S(C)(=O)=O)cc2)c1-c1ccc(F)cc1 | 180 to 182 °C
CCOC(=O)C(Oc1ccc(Cl)cc1)c1ccc(Oc2ccc(Cl)cc2)cc1 (stereo unspecified) | 52.5 to 54 °C
CC1(C)CC(=O)C(c2cccc(Cl)c2)C(=O)C1 | 155 to 158 °C
CC(C)c1cccc(C(C)C)c1NC(=O)NCC1(O)CCc2ccccc21 (stereo unspecified) | 173 to 174 °C
CN(C)c1cccc(-c2nc3ncccc3o2)c1 | 208 to 209 °C
CN1Cc2c(C(=O)NN)ncn2-c2ccc(F)c(Cl)c2C1=O | 308 to 310 °C
CC(C)CC(NC(=O)C1CCCN1C(=O)OCc1ccccc1)OCC(=O)O (stereo unspecified) | 118 to 120 °C
O=C(CCCO)NCCO | 54 to 56 °C
Nc1nccc2occc12 | 122 to 124 °C
COc1cccc(CC[C@H]2CN(Cc3ccccc3)CCN2Cc2ccccc2)c1 | 73 to 75 °C
Cc1nc2c(N)nc3ccc(OCc4ccccc4)cc3c2n1CCCCCS(C)(=O)=O | 215 to 217 °C
COC(=O)c1cccc(Cn2nc(C(N)=O)c3ccccc32)c1 | 166 to 168 °C
O=C(Nc1ccc(C(F)(F)F)cc1)NC1CCN(S(=O)(=O)c2ccccc2)CC1 | 248 to 252 °C
CN(C)CCCOc1ccc(C(=O)NN)cc1 | 79.5 to 81 °C
COc1ccc(C)cc1NC(=O)Nc1ccc(N2CCN(C(=O)Nc3ccc(N(C)CCO)cc3C)CC2)cc1 | 208 to 210 °C
CC(=O)Nc1ccc(O)cc1Cl | 128 to 129 °C
CC(C)CC(=O)Nc1cncc(-c2ccnc3c(C(=O)c4cccs4)cnn23)c1 | 217 to 219 °C
COc1nc(C)n2nc(S(=O)(=O)Nc3c(Cl)cccc3Cl)nc2c1Cl | 255 to 256 °C
CCc1cc2c(s1)-n1nc(C(N)=O)nc1C(OC)N=C2c1ccccc1Cl (stereo unspecified) | 200 to 201 °C
COc1cc2c3c(c1O)-c1ccc(Cl)cc1CC3N(C)CC2 (stereo unspecified) | 155 to 157 °C

Structure (SMILES) | melting point
CCCc1nc(NCCOC(N)=O)nc(N2CCOCC2)n1 | 139 to 140 °C
C#Cc1cc2nc(O)c(O)nc2cc1[N+](=O)[O-] | > 300 °C
CCCCCCCCCCCCCCCCCC(=O)Oc1cc(C(C)(C)C)c(O)c(C(C)(C)C)c1 | 35 to 39 °C
CCCn1c(=O)c2c(nc(C=Cc3ccc(C(=O)O)cc3OC)n2C)n(CCC)c1=O | 285 to 286 °C
Nc1cccc(-c2ccc3nncn3n2)c1 | 225 °C
Cc1sc(CCc2ccc(CO)cc2)nc1-c1ccccc1 | 62 to 63 °C
c1ccc(Nc2ncc3ccncc3n2)cc1 | 161 °C
CCOC(=O)C1=C(COCC(C)O)NC(C)=C(C(=O)OC)C1c1cccc(Cl)c1Cl (stereo unspecified) | 110 to 113 °C
ON=C(Cn1cncn1)c1ccc(Cl)cc1Cl | 117 °C
COc1ccc(C(=O)c2c(Cl)cc(Cl)cc2Cl)cc1Cc1ccc(=O)[nH]n1 | 179 to 180 °C
Cc1cc(C)c(Oc2ccc(C=NNC(N)=O)cc2)c(C)c1 | 189 to 190 °C
CCc1cn2c(n1)Cc1cc3c(cc1C(c1ccc(N)cc1)=N2)OCO3 | 192 to 194 °C
O=[N+]([O-])c1ccc(N=C(NC(=S)NCc2cccnc2)c2ccccc2)cc1 | 179 to 180 °C
Cc1cc(C)c(CP(=O)(c2ccccc2)c2ccccc2)c(-c2ccc(F)c(C)c2)c1 | 109 to 111 °C
CC1(OCc2ccccc2Cl)COC(CCl)OC1 (stereo unspecified) | 53 to 54 °C
Cc1sc2cc(CCO)ccc2c1C(=O)O | 166 to 169 °C
NCc1ccc(-c2nc(-c3ccc(F)cc3)c(-c3ccncc3)[nH]2)cc1 | 214 to 215 °C
C=CCONC(=O)n1nc(Oc2c(Cl)cc(C(F)(F)F)cc2Cl)cc1C | 68 to 70 °C
CC(O)C(CCCc1ccccc1)n1cnc(C(N)=O)c1N (stereo unspecified) | 132 °C
Clc1ccc2nc(N3CCN(c4ncccc4Cl)CC3)[nH]c2c1 | 214 to 215 °C
CCOC(=O)c1cc(C=O)cn1C | 75 to 76 °C
CN(C)c1noc(-c2ncn3c2COc2cc(F)ccc2-3)n1 | 239 to 240 °C
N#CCCC(C#N)CSc1ccc2ccccc2c1 (stereo unspecified) | 52 to 55 °C
